A short description of this data set: physchem. To be noted: thermodynamic from solid. Here is the method:
Each polycarboxylic acid was added to the water or acetic acid solution while mixing and kept at the appropriate temperature until the solution became supersaturated as visually determined at least 20 minutes after addition of the polycarboxylic acid.

Take `O=C(O)CCCCCCCCCCC(=O)O` [DDDA, dodecanedioic acid]: the solubility is under 200 µg/mL (20 °C, organic solvent or mixture); under 30 µg/mL (23 °C, water); over 100000 µg/mL (70 °C, organic solvent or mixture); under 120 µg/mL (70 °C, water); under 1000 µg/mL (water).

As usually defined, the solubility is the concentration that dissolves in the medium under given conditions.

Source of the values: patent publication US9517996B2, “Purification of polycarboxylic acids” (Verdezyne, Inc., priority 2014, dated 2016).
